Reference: patent publication US6444821B1, “Crystals of piperidine derivatives, intermediates for production of the same, and process for producing the same” (Ajinomoto Co., Inc., priority 1995, dated 2002)
Structures can show the parent of a compound that is named as a salt.

How the values were obtained:
[1] = Dissolution rate in gastric juice model solution (JP-1 solution); format: physicochemical; details: 20 mg crystals in 500 ml JP-1 solution, 37° C., FIG. 9
Method: Each 20 mg of the monohydrate and trihydrate crystals of Compound (I) produced in Examples 4 and 6 was added to 500 ml of a gastric juice model solution (JP-1 solution according to Japan Pharmacopeia) of 37° C., and the concentration of Compound (I) in the solution was measured over the course of time.

[2] = Oral bioavailability in Beagle dog (plasma AUC oral vs intravenous); format: in vivo; details: 3.0 mg/kg, plasma sampled 30 minutes to 24 hours
Method: Each of the monohydrate and trihydrate crystals of Compound (I) produced in Examples 4 and 6 was orally administered to a Beagle dog at a dose of 3.0 mg/kg. After 30 minutes, 1 hour, 2 hours, 3 hours, 4 hours, 6 hours, 8 hours and 24 hours of the administration, the blood was collected, the concentration of Compound (I) in the plasma was measured, and the area under plasma concentration curve (AUC) was obtained.

[3] = Storage stability of crystals; format: physicochemical; details: storage for 1 month
Description: Still further, the monohydrate and trihydrate crystals of the present invention can be easily produced from α-type anhydride crystals and β-type anhydride crystals.

Compound	dissolution rate [1]	bioavailability (ratio of the AUC value of oral administration to that of intravenous administration) ([2]; hydrochloride trihydrate)	stability (chemical and physical) on storage [3]	bioavailability (ratio of the AUC value of oral administration to that of intravenous administration) ([2]; hydrochloride monohydrate)
O=CN1CCC(C(=O)NCCN2CCC(=C3c4ccccc4C=Cc4ccccc43)CC2)CC1 [trihydrate crystals, N-(2-(4-(5H-dibenzo[a,d]cyclohepten-5-ylidene)-piperidino)ethyl)-1-formyl-4-piperidinecarboxamide hydrochloride trihydrate]	high dissolution rate compared to the monohydrate crystals	49.6%	–	–
O=CN1CCC(C(=O)NCCN2CCC(=C3c4ccccc4C=Cc4ccccc43)CC2)CC1 [monohydrate crystals, N-(2-(4-(5H-dibenzo(a,d)cyclohepten-5-ylidene)-piperidino)ethyl)-1-formyl-4-piperidinecarboxamide hydrochloride monohydrate]	–	–	unchanged even after storage for 1 month	73.4%
